Assay results from patent publication US5585095A, “Method to enhance thrombomodulin APC generation using cationic proteins” (Regents of the University of Minnesota, priority 1993, dated 1996).

Assays:
[1] = system: purified, soluble rabbit TM; settings: polyanions added to MBP-inhibited TM; cited from earlier work
GAG+ TM [2] = biological target: T1, GAG+ TM (Homo sapiens, UniProt P07204); experiment: APC generation by recombinant GAG+ TM with thrombin and protein C (chromogenic S-2366); assay type: biochemical; settings: for acceleratory effect upon APC generation by thrombomodulin (GAG+ TM): conditions of Example 1, GAG+ TM, FIG. 4
T1 construct: encompassing the entire extracellular domain ([amino acids 1-497], which includes the serine 492 glycosylation site); host or cells: Chinese Hamster Ovary cells
T1 sequence (P07204 19-515): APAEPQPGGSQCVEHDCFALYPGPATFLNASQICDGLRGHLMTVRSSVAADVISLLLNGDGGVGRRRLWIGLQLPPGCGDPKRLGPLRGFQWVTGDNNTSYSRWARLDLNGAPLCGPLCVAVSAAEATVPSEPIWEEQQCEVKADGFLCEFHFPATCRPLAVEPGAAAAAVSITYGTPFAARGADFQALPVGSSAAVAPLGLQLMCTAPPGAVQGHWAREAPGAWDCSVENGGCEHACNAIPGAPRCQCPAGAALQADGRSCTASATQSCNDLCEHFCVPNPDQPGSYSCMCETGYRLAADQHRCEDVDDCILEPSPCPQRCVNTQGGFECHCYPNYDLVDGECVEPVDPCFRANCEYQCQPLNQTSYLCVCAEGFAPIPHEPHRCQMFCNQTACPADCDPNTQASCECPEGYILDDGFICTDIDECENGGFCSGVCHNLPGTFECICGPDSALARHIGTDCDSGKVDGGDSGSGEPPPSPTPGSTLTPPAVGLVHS
Method: (§1) Human PF4 was purified from outdated platelets by THR stimulation, NH4 SO4 precipitation, heparin affinity chromatography, and Scphadex G-100 chromatography using a technique described in T. F. Deuel et al., Proc. Natl. Acad. Sci. USA, 74, 2256-2258 (1977), which is incorporated herein by reference. Dose-response studies were then performed with increasing amounts of PF4 to assay its effect upon the ability of three TM preps to generate APC from protein C. The three TM preps employed were: a) full-length rabbit TM purified from lungs (see, N. L. Esmon et al., J. Biol. Chem., 257, 859-864 (1982)); and b) two differentially glycated versions of a recombinantly produced polypeptide fragment of human TM encompassing the entire extracellular domain ([amino acids 1-497], which includes the serine 492 glycosylation site) expressed in Chinese Hamster Ovary cells, provided by Berlex Biosciences (Richmond, Calif.). See, C. B. Glaser et al., J. Clin. Invest., 90, 2565-2573 (1992). These polypeptides were produced in two chromatographically separable forms: the first has an apparent molecular weight of 116 kD and contains a chondroitinase ABC-cleavable GAG moiety (henceforth referred to GAG+ TM); the second is an unglycated version of the same polypeptide with apparent molecular weight of 95 kD, henceforth referred to as GAG- TM.
(§2) For each type of TM, 2 nM TM and 500 nM protein C were incubated together in the presence of 1 mM (i.e., physiologic) Ca^2+ with or without PF4, and the generation of APC initiated by the addition of 2 nM THR in 50 mM Tris, 100 mM NaCl, pH 7.4 at 37° C. The reaction was allowed to proceed for 10 minutes, then quenched by the addition of AT III (obtained from Enzyme Research Laboratories, Inc., South Bend, Ind.) and EDTA. APC was quantified spectrophotometrically with the chromogenic substrate S-2366 (obtained from Kabi Vitrum, Franklin, Ohio). The spectrophotometric analysis involved the conversion of the chromogenic substrate at 405 nM in a 37° C. spectrophotometer cell based on the initial rate of optical density change. Negative controls of plastic wells treated in a parallel fashion except that TM was omitted. Values obtained from these controls were then subtracted from the rates measured for wells containing monolayers.
The conditions used were identical to those listed in Example 1 except GAG+ TM obtained from Berlex Biosciences was used for all experiments.

full-length rabbit TM = biological target: T2, full-length rabbit TM (Oryctolagus cuniculus, UniProt Q8HZ48); experiment: APC generation by soluble full-length rabbit TM with thrombin and protein C (chromogenic S-2366); assay type: biochemical; settings: 2 nM TM, 500 nM protein C, 1 mM Ca2+, 2 nM THR, 10 min, 37° C., over baseline
T2 construct: full-length rabbit TM purified from lungs; from tissue; host or cells: rabbit lung (purified after N. L. Esmon et al. 1982)
T2 sequence (Q8HZ48 19-580): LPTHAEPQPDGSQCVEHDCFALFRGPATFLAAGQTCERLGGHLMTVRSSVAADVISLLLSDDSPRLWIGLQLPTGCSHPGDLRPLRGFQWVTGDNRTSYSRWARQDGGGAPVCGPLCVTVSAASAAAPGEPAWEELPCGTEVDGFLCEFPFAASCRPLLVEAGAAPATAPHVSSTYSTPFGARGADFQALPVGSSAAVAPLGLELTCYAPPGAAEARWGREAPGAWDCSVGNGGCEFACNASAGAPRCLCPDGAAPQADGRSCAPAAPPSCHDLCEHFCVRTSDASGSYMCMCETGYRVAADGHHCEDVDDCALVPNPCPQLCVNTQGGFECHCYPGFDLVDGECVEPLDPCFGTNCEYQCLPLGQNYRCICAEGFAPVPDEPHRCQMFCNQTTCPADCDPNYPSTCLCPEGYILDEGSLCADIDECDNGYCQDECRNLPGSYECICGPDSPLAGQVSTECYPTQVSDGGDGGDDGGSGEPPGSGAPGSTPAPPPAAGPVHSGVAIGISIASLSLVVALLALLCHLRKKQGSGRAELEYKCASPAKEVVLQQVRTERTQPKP
Method: For each type of cationic protein or modification thereof to be tested, 2 nM TM (full-length rabbit TM) and 500 nM protein C are incubated together in the presence of 1 mM (i.e., physiologic) Ca^2+ with either no cationic protein (for a baseline determination) or […] of the cationic protein. The generation of APC is initiated by the addition of 2 nM THR in 50 mM of the buffer Tris, 100 mM NaCl, pH 7.4 at 37° C. The reaction is allowed to proceed for 10 minutes, then quenched by the addition of AT III (antithrombin obtained from Enzyme Research Laboratories, Inc., South Bend, Ind.) and EDTA. […] A cationic protein that can be used in the methods and compositions of the present invention include those that show at least a two-fold increase in APC production, relative to a baseline of APC generated without the cationic protein.
Dose-response studies were then performed with increasing amounts of PF4 to assay its effect upon the ability of three TM preps to generate APC from protein C. […] See, C.
as §2, with “APC was quantified spectrophotometrically with the chromogenic substrate S-2366 (obtained from Kabi Vitrum, Franklin, Ohio). The spectrophotometric analysis involved the conversion of the chromogenic substrate at 405 nM in a 37° C. spectrophotometer cell based on the initial rate of optical density change.” left out

THR = experiment: TM-independent activation of protein C by THR (control); assay type: biochemical; settings: controls, not shown
Method: as §2
(§3) PF4 accelerates APC generation by full-length rabbit TM and GAG- TM 4-fold, and that of GAG+ TM 25-fold. GAG+ TM was also accelerated 10-fold by PF4 in the presence of 15% defibrinated plasma. […] The increase in APC was not an artifact of PF4 influencing the catalytic activity of APC towards chromogenic substrate.

GAG+ TM [3] = biological target: T1, GAG+ TM; experiment: APC generation by recombinant GAG+ TM with thrombin and protein C (chromogenic S-2366); assay type: biochemical
TM [4] = experiment: APC formation with exogenous TM in combination with PF4; settings: pharmacological (exogenous) TM in combination with purified naturally occurring or recombinant PF4
Excerpt: The particularly preferred compositions of the present invention include those containing purified PF4, or a modification thereof, and a thrombomodulin preparation, such as purified soluble GAG+ thrombomodulin. Such compositions display particularly high levels of APC formation, and thus particularly effective levels of anticoagulation. For example, with the administration of a pharmacological form of TM, i.e., an exogenous form, in combination with purified naturally occurring or recombinant PF4, there is a 3-8 fold increase in the amount of APC formed, as compared to the administration of PF4 alone using endogenous forms of TM. This is particularly advantageous because TM and PF4, individually or together, have a higher therapeutic index than does heparin, which is currently used for anticoagulation therapy.

GAG- TM = experiment: APC generation by recombinant GAG- TM with thrombin and protein C (chromogenic S-2366); assay type: biochemical, human
Method: as §1, with “These polypeptides were produced in two chromatographically separable forms: the first has an apparent molecular weight of 116 kD and contains a chondroitinase ABC-cleavable GAG moiety (henceforth referred to GAG+ TM); the second is an unglycated version of the same polypeptide with apparent molecular weight of 95 kD, henceforth referred to as GAG- TM.” left out
The reaction was allowed to proceed for 10 minutes, then quenched by the addition of AT III (obtained from Enzyme Research Laboratories, Inc., South Bend, Ind.) and EDTA. APC was quantified spectrophotometrically with the chromogenic substrate S-2366 (obtained from Kabi Vitrum, Franklin, Ohio). […] Values obtained from these controls were then subtracted from the rates measured for wells containing monolayers. […]

TM [5] = experiment: APC generation in the absence of added THR (control); assay type: biochemical; settings: PF4 alone or PF4 together with TM
Method: as §2, with “The” for “For each type of TM, 2 nM TM and 500 nM protein C were incubated together in the presence of 1 mM (i.e., physiologic) Ca^2+ with or without PF4, and the generation of APC initiated by the addition of 2 nM THR in 50 mM Tris, 100 mM NaCl, pH 7.4 at 37° C. The”
as §3

[6] = system: cell-surface TM on porcine aortic endothelial cell (PAEC) monolayers; experiment: APC generation by porcine aortic endothelial cell monolayers; assay type: cell-based
Method: In these experiments, 1 cm^2 monolayers of endothelial cells were overlaid with PBS buffer containing 500 nM PC and 1 mM Ca^2+, then further supplemented with either PBS or PBS with 15% (v/v) bovine serum. To these wells were then added increasing concentrations of purified native PF4. The resultant mixture was incubated for 20 minutes after which either 2 nM (PBS) or 10 nM THR (15% serum) was added and the generation of APC allowed to proceed for 45 minutes prior to quenching with addition of AT III and EDTA.

APC = experiment: Detection of known amounts of APC in 15% serum by chromogenic substrate (control); assay type: biochemical; settings: known amounts of APC added to 15% serum, not shown
Method: In addition to stimulating APC generation by soluble forms of TM in buffers, PF4 also stimulates APC generation of cell-surface TM on porcine aortic endothelial cell (PAEC) monolayers in plasmatic conditions. In these experiments, 1 cm^2 monolayers of endothelial cells were overlaid with PBS buffer containing 500 nM PC and 1 mM Ca^2+, then further supplemented with either PBS or PBS with 15% (v/v) bovine serum. To these wells were then added increasing concentrations of purified native PF4. The resultant mixture was incubated for 20 minutes after which either 2 nM (PBS) or 10 nM THR (15% serum) was added and the generation of APC allowed to proceed for 45 minutes prior to quenching with addition of AT III and EDTA. Supernatants were then centrifuged to remove cellular debris and APC generation quantified using chromogenic substrate S-2366 as described above. In the absence of added serum, there is a 2 1/2-fold increase in APC generation with an optimum at 3.3 μg/ml of PF4, but decreasing APC generation with higher concentrations. In contrast, in the presence of 15% serum, the baseline APC generation is much lower despite the presence of higher concentrations of THR. There is a PF4 dose-dependent increase in APC generation with an optimum at 33 μg/ml PF4, at which point APC generation is 10-fold higher than baseline. […]

[7] = 2 nM TM, 500 nM protein C, 1 mM Ca2+, 2 nM THR, 10 min, 37° C., over baseline

Substance: heparin
- reversal of MBP inhibition of APC generation [1]: reversed
- acceleratory effect upon APC generation by thrombomodulin (GAG+ TM) (GAG+ TM [2]): no such effect

Substance: thrombospondin: anionic protein; major constituent of platelet α-granules
- acceleratory effect upon APC generation by thrombomodulin (GAG+ TM) (GAG+ TM [2]): no such effect

Substance: poly-L-lysine
- fold acceleration of APC generation by full-length rabbit TM (full-length rabbit TM): 2.5 fold
- acceleratory effect upon APC generation by thrombomodulin (GAG+ TM) (GAG+ TM [2]): can be replicated

Substance: protamine sulfate
- fold acceleration of APC generation by full-length rabbit TM (full-length rabbit TM): 2.5 fold
- acceleratory effect upon APC generation by thrombomodulin (GAG+ TM) (GAG+ TM [2]): can be replicated

Substance: chondroitin sulfate A
- acceleratory effect upon APC generation by thrombomodulin (GAG+ TM) (GAG+ TM [2]): no such effect

Substance: chondroitin sulfate E
- reversal of MBP inhibition of APC generation [1]: reversed
- acceleratory effect upon APC generation by thrombomodulin (GAG+ TM) (GAG+ TM [2]): no such effect

Substance: PF4: moderately cationic and hydrophobic major protein constituent of platelet α-granules, 7.8 kD; human PF4 purified from outdated platelets
- effect upon TM-independent activation of protein C by THR (THR): essentially no effect
- APC generation in the absence of Ca2+ (GAG+ TM [3]; 0 calcium, buffers with 1 mM EDTA, GAG+ and GAG- forms of TM): allows both the GAG+ and GAG- forms of TM to generate APC even in the absence of Ca^2+
- Ca2+ optimum of APC generation by GAG+ TM with PF4 added (GAG+ TM [3]; PF4 added, FIG. 2): 0.5 mM
- fold increase in the amount of APC formed, exogenous TM plus PF4 versus PF4 alone using endogenous TM (TM [4]): 3-8 fold
- fold acceleration of APC generation by GAG- TM (GAG- TM; [7]): 4 fold
- effect of PF4 on Ca2+ dependence of APC generation by GAG- variant (GAG- TM; several Ca2+ concentrations, FIG. 2): increases APC generation at all Ca^2+ concentrations but does not shift the overall shape of the curve
- fold acceleration of APC generation by full-length rabbit TM (full-length rabbit TM): 4 fold
- fold acceleration of APC generation by GAG+ TM (GAG+ TM [2]; [7]): 25 fold
- acceleration of GAG+ TM by PF4 relative to full-length rabbit TM and GAG- TM (fold-over-baseline basis) (GAG+ TM [2]; fold-over-baseline comparison): more than six times as much
- fold acceleration of APC generation by GAG+ TM in plasma (GAG+ TM [2]; in the presence of 15% defibrinated plasma): 10 fold
- APC generation in the absence of added THR (TM [5]): neither PF4 alone nor PF4 together with TM generated APC
- PF4 concentration optimum for APC generation, PAEC, 15% serum ([6]; 15% (v/v) bovine serum, 10 nM THR): 33 µg/mL
- fold increase in APC generation over baseline, PAEC, 15% serum ([6]; 15% (v/v) bovine serum, 10 nM THR, at 33 μg/ml PF4): 10 fold
- PF4 concentration optimum for APC generation, PAEC, no serum ([6]; PBS, absence of added serum, 2 nM THR): 3.3 µg/mL
- effect on APC detection by chromogenic substrate (APC): did not diminish or augment APC detection
